Measured values taken from PubChem BioAssay (NCI).
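These data come from cells grown in 96-well plates and exposed to compound for 48 hours at five concentrations. Abbreviation: GI50, concentration required for 50% inhibition of growth. TGI: concentration producing complete growth inhibition.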

Tests used:
Assay in all cases: NCI anticancer screen, dose series, 48 h
[1] = test system: K-562 leukemia
[2] = test system: 786-0 renal
[3] = test system: HT29 colon
[4] = test system: LOX IMVI melanoma
[5] = test system: COLO 205 colon
[6] = test system: OVCAR-8 ovarian
[7] = test system: IGROV1 ovarian
[8] = test system: MCF7 breast
[9] = test system: SF-295 CNS
[10] = test system: A498 renal

Compound	GI50 [1] [µM]	TGI [1] [µM]	GI50 [2] [µM]	TGI [2] [µM]	GI50 [3] [µM]	TGI [3] [µM]	GI50 [4] [µM]	TGI [4] [µM]	GI50 [5] [µM]	TGI [5] [µM]	GI50 [6] [µM]	TGI [6] [µM]	GI50 [7] [µM]	TGI [7] [µM]	GI50 [8] [µM]	TGI [8] [µM]	GI50 [9] [µM]	TGI [9] [µM]	GI50 [10] [µM]	TGI [10] [µM]
N#Cc1c(N)nc(NCc2ccccc2)c(C#N)c1-c1ccc(Cl)cc1Cl	> 100	> 100	> 100	> 100	> 100	> 100	> 100	> 100	> 100	> 100	> 67	> 100	40.5	> 100	> 100	> 100	> 63.9	> 100	> 100	> 100
CN(C)c1ccc(C(c2ccc(Cl)cc2)c2ccc(N(C)C)cc2)cc1	–	> 100	–	> 100	–	> 100	–	> 100	–	> 100	–	> 100	–	> 100	–	> 100	–	> 100	–	> 100
Nc1nc(=O)n([C@@H]2CS[C@H](CO)O2)cc1F	> 100	> 100	> 100	> 100	> 100	> 100	> 100	> 100	> 100	> 100	> 100	> 100	> 100	> 100	> 100	> 100	> 100	> 100	> 100	> 100
CC(=O)c1cc(C(=O)c2ccc3c(c2)Sc2ccccc2N3)c2c(C)cccn12	0.112	> 100	0.488	7.29	0.272	1.8	0.595	4.61	0.187	0.426	0.374	> 31.8	0.621	> 100	0.117	> 100	0.188	15.8	0.141	1.9
Cc1cc(Cl)ccc1Nc1nc(C(F)(F)F)ccc1C(=O)N/N=C/c1ccccc1Cl	0.588	–	0.672	2.67	2.01	> 41.9	0.53	2.94	0.727	2.1	2.16	> 92.7	1.57	> 42.2	0.896	10.6	0.691	4.12	–	3.14
COc1cc(NCCN=C(N)NC(N)=NC(C)C)c2ncccc2c1	10.7	> 100	> 88.8	> 100	7.91	> 100	20.1	94.8	1.7	7.95	22.6	> 100	1.37	> 24.8	0.0297	0.116	> 90.9	> 100	> 58.1	> 100
O=C(Nc1cc(Oc2cc(F)c(NC(=O)C3(C(=O)Nc4ccc(F)cc4)CC3)cc2F)ccn1)C1CC1	1.9	> 100	3.98	> 50.1	0.929	4.74	2.2	6.25	1.4	3.27	3.25	> 31.6	2.85	7.61	0.936	9.55	2.21	9.91	2.41	5.18
O=S(=O)(Nc1ccc(F)c(Cl)c1)c1ccc(-c2cnc(C3CC3)o2)cc1	0.0623	> 52.8	0.495	13.1	0.259	2.56	0.401	13.5	0.375	4.69	0.588	14.6	0.418	12.3	0.126	9.83	0.199	1.49	0.156	0.823
Cc1ccc(NCCN(C)C)c2c(=O)c3ccccc3sc12	1.6	3.56	1.58	3.54	1.62	3.77	1.61	3.45	1.29	2.65	3.16	12.4	1.5	5.05	1.47	2.95	1.88	4.46	1.14	2.52
C#COc1cccc(Nc2ncnc3cc(NC(=O)[C@H](C)Cl)ccc23)c1	2.03	> 62.5	3.24	> 62.5	2.21	> 62.5	2.54	> 62.5	3.86	> 62.5	4.5	> 62.5	2.35	> 62.5	6.08	> 62.5	2.28	61.1	1.73	34.5
Clc1ccccc1C(Nc1ncccn1)Nc1ncccn1	–	> 100	–	> 100	–	> 100	–	> 100	–	> 100	–	> 100	–	> 100	–	> 100	–	> 100	–	> 100
CCOC(=O)c1ccc2c(c1)[n+](=O)c(C(C)=O)c(C(F)(F)F)n2[O-]	1.16	2.52	1.67	3.21	1.58	3.11	1.47	3.12	1.54	3	2.42	9.25	1.46	3.42	1.24	2.61	1.37	3.01	1.33	3.16
Cc1cn(-c2ccc(S(C)(=O)=O)cc2)c(-c2ccc(Cl)cc2)n1	> 100	> 100	> 100	> 100	> 100	> 100	> 100	> 100	> 100	> 100	> 100	> 100	> 100	> 100	> 100	> 100	> 100	> 100	> 100	> 100
CCOC(=O)c1cnn2c3ccccc3n(S(=O)(=O)c3ccc(OC)cc3)c12	0.0553	> 100	0.666	> 100	0.31	> 100	0.496	> 61	0.289	1.08	0.551	> 100	0.478	> 100	0.0998	> 100	0.255	–	0.209	0.764
COc1cccc(C2C3=C(COC3=O)N(CCO)c3cc4c(cc32)OCO4)c1 (stereo unspecified)	0.155	> 18.7	0.37	> 50	0.154	1.58	0.451	> 50	0.191	0.854	1.19	> 50	0.154	1.64	0.185	> 50	0.157	–	0.263	5.1
C[C@@H]1COCCN1c1cc(C2([S@@](C)(=N)=O)CC2)nc(-c2ccnc3[nH]ccc23)n1	8.91	> 100	2.7	26.8	6.41	> 100	2.14	14	7.69	> 83.1	10.9	> 100	5.11	> 71.1	0.956	> 100	3.35	32.5	0.716	4.2
COc1ccc(Nc2nc3cc(N)cc(N)c3nc2-c2ccccc2)cc1OC	20.2	71.2	23.8	90.3	25.2	52.7	25.8	72.2	19.8	41.2	33.6	> 100	24.8	> 100	20.5	44.8	16.9	45.3	11.7	55.7
COc1cccc(/C(C)=N/NC(=O)CSc2nc3ccccc3c(=O)n2CCc2ccc(S(N)(=O)=O)cc2)c1	11.2	> 100	1.47	3.95	2.36	5.31	3.1	11.7	4.13	21.1	2.32	4.88	5.09	24.4	3.14	15.4	4.02	16.3	8.02	24.8
CC12CCC3c4cc(Br)c(O)c(Br)c4CCC3C1CCC2O (stereo unspecified)	–	64.6	–	42	–	29.1	–	63.6	–	70.1	–	42.1	–	34	–	74.6	–	33.4	–	36.3
Nc1ccccc1C#C/C=C\C#Cc1c(F)c(F)c(F)c(F)c1F	16.3	53.7	12.3	30.5	19.7	50.7	2.68	14.6	18.9	37.4	17.1	36.7	10.9	24.5	24.6	> 100	20.3	46.6	25.5	55.8
